# From patent US7067537B2, “Substituted thiazole derivatives bearing 3-pyridyl groups, process for preparing the same and use thereof” (Takeda Pharmaceutical Company Limited, priority 2000, dated 2006)
# Where a name gives a salt, the structure may show the parent alone.
# Target: T1, Rat C17,20-lyase (Rattus norvegicus, UniProt P11715)
# T1 construct: The orchis was homogenized and centrifuged to prepare a microsome; from tissue; host or cells: testis (orchis) microsomes of 13-week-old male SD rat
# T1 sequence (P11715 1-507): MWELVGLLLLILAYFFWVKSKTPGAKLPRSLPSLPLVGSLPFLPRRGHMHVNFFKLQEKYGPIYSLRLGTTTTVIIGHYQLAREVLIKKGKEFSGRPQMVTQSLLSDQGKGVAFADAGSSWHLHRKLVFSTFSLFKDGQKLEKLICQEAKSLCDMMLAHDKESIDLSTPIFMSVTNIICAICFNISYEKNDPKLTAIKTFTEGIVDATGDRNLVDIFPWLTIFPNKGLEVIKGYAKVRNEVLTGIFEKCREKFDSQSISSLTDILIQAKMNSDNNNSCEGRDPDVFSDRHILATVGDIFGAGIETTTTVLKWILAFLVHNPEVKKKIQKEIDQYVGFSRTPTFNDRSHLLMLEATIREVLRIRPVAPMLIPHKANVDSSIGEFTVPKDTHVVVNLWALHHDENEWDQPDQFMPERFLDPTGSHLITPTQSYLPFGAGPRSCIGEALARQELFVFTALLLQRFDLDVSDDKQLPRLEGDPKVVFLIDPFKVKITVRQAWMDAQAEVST
# Test: Assay of steroid C17,20-lyase-inhibitory activity in rat (testis microsome, TLC of 3H-labelled products)
# Type: biochemical
# Conditions: microsome from orchis of 13-week-old male SD rat; [1.2-3H]-17α-hydroxyprogesterone 10 nM, NADPH; pH 7.4; 37° C., 7 min; read-out: In vitro enzyme inhibitory activity (IC50) Rat C17,20-lyase
# Procedure: Assay of Steroid C17,20-lyase-inhibitory Activity in Rat
# The assay was performed according to The Prostate, Vol. 26, 140–150 (1995). The orchis was removed from 13-week-old male SD rat. The orchis was homogenized and centrifuged to prepare a microsome. The [1.2-^3H]-17α-hydroxyprogesterone having a final concentration of 10 nM, NADPH solution and the test compound were was dissolved in a 100 mM phosphate buffer solution (10 μl, pH 7.4). Microsome protein (7 μg/10 μl) was added and the mixture was incubated at 37° C. for 7 min. Ethyl acetate (40 μl) was added and the mixture was centrifuged, and the substrate and the product (androstenedione and testosterone) in the supernatant were separated by silica gel thin layer chromatography (TLC). The spot was detected and quantitatively assayed by a BAS 2000 bioimage analyzer. Taking the production amount when the test compound was not added (control) as 100%, the concentration (IC50) of the compound necessary for 50% inhibition of the product amount relative to the control was calculated.
row,SMILES,IC50 [µM]
1,COc1cccc(-c2csc(-c3cccnc3)n2)c1 [Compound 49],0.033
2,FC(F)(F)c1ccncc1-c1nc(-c2ccc(Br)cc2)cs1 [Compound 53],< 0.01
3,COc1ccc(-c2csc(-c3cnccc3C(F)(F)F)n2)cc1 [Compound 64],< 0.01
4,COc1ccncc1-c1nc(-c2ccc(C)cc2C)cs1 [Compound 85],0.03
5,Fc1ccc(-c2nc(-c3cccnc3)cs2)cc1 [Compound 136],0.014

# Next, values leading:
row,IC50 [µM],SMILES
1,< 0.01,"Cc1ccncc1-c1nc(-c2ccc(F)cc2)cs1 [Compound 78, 3-[4-(4-fluorophenyl)-1,3-thiazol-2-yl]-4-methylpyridine]"
2,< 0.01,Cc1ccc(-c2csc(-c3cnccc3C)n2)cc1 [Compound 103]

# System: not given
# Test: not given
# Conditions: not given
row,SMILES,melting point [°C]
1,CC(=O)Nc1cccc(-c2csc(-c3cnccc3C(F)(F)F)n2)c1.Cl,154 to 155
2,CS(=O)(=O)Nc1ccc(-c2csc(-c3cnccc3C(F)(F)F)n2)cc1.Cl,205 to 207
3,COc1cccc(-c2csc(-c3cccnc3)n2)c1 (as salt: HBr) [Compound 49],231 to 233
4,Fc1ccc(-c2nc(-c3cccnc3)cs2)cc1 (as salt: HBr) [Compound 136],225 to 227
5,COc1ccc(-c2csc(-c3cnccc3C(F)(F)F)n2)cc1 (as salt: HCl) [Compound 64],93 to 95
6,COc1ccncc1-c1nc(-c2ccc(C)cc2C)cs1 (as salt: HCl) [Compound 85],154
7,"CS(=O)(=O)Nc1cccc(-c2csc(-c3cnccc3C(F)(F)F)n2)c1 (as salt: hydrochloride) [Compound 161, N-(3-{2-[4-(trifluoromethyl)pyridin-3-yl]-1,3-thiazol-4-yl}phenyl)methanesulfonamide]",162 to 165
8,FC(F)(F)c1ccncc1-c1nc(-c2ccc(Br)cc2)cs1 [Compound 53],69 to 71
9,"CC(C)(O)c1ccncc1-c1nc(-c2ccc(Cl)cc2)cs1 [Compound 145, 2-{3-[4-(4-chlorophenyl)-1,3-thiazol-2-yl]pyridin-4-yl}propan-2-ol]",146
10,"Cc1ccncc1-c1nc(-c2ccc(Cl)cc2)c(Cl)s1 [Compound 150, 3-[5-chloro-4-(4-chlorophenyl)-1,3-thiazol-2-yl]-4-methylpyridine]",146
11,"Cc1ccc(-c2nc(-c3cnccc3C)sc2F)cc1 [Compound 153, 3-[5-fluoro-4-(4-methylphenyl)-1,3-thiazol-2-yl]-4-methylpyridine]",96
12,"NS(=O)(=O)c1ccc(-c2csc(-c3cnccc3C(F)(F)F)n2)cc1 [Compound 155, 4-{2-[4-(trifluoromethyl)pyridin-3-yl]-1,3-thiazol-4-yl}benzenesulfonamide]",217
13,"Nc1ccc(-c2csc(-c3cnccc3C(F)(F)F)n2)cc1 [Compound 156, 4-{2-[4-(trifluoromethyl)pyridin-3-yl]-1,3-thiazol-4-yl}aniline]",71 to 72
14,"Cc1ccncc1-c1csc(-c2cc(C(=O)N3CCCC3)ccc2C)n1 [Example 32, 4-methyl-3-{2-[2-methyl-5-(pyrrolidine-1-ylcarbonyl)phenyl]-1,3-thiazol-4-yl}pyridine]",149 to 150
15,"Cc1ccncc1-c1csc(-c2cc(NC=O)ccc2C)n1 [Example 37, 4-methyl-3-[4-(4-methylpyridin-3-yl)-1,3-thiazol-2-yl]phenylformamide]",127 to 129

# Now from value to compound:
row,melting point [°C],SMILES
1,180 to 183,"Cc1ccncc1-c1csc(-c2ccc(F)cc2)n1 (as salt: HCl) [Compound 137, 3-[2-(4-fluorophenyl)-1,3-thiazol-4-yl]-4-methylpyridine]"
2,119,"Cc1ccncc1-c1nc(-c2ccc(Cl)cc2)cs1 [Compound 74, 3-[4-(4-chlorophenyl)-1,3-thiazol-2-yl]-4-methylpyridine]"
3,129,"Cc1ccncc1-c1nc(-c2ccc(F)cc2)cs1 [Compound 78, 3-[4-(4-fluorophenyl)-1,3-thiazol-2-yl]-4-methylpyridine]"
4,98,Cc1ccc(-c2csc(-c3cnccc3C)n2)cc1 [Compound 103]
5,192 to 195,"Cc1ccncc1-c1csc(-c2ccc(S(N)(=O)=O)cc2)n1 [Compound 135, 4-[4-(4-methyl-pyridin-3-yl)-1,3-thiazol-2-yl]benzenesulfonamide]"
6,202,NC(=O)CNc1ccncc1-c1nc(-c2ccc(Cl)cc2)cs1 [Compound 144]
7,195,"CN(C)C(=O)c1ccncc1-c1nc(-c2ccc(Cl)cc2)cs1 [Compound 146, 3-[4-(4-chlorophenyl)-1,3-thiazol-2-yl]-N,N-dimethylisonicotinamide]"
8,201,NC(=O)c1ccncc1-c1nc(-c2ccc(Cl)cc2)cs1 [Compound 147]
9,205,CNC(=O)c1ccncc1-c1nc(-c2ccc(Cl)cc2)cs1 [Compound 148]
10,219,"Cc1ccncc1-c1nc(-c2ccc(S(N)(=O)=O)cc2)cs1 [Compound 154, 4-[2-(4-methylpyridin-3-yl)-1,3-thiazol-4-yl]benzenesulfonamide]"
11,> 300,"Cc1ccncc1-c1nc(-c2ccc(C(=O)O)cc2)cs1 [Compound 163, 4-[2-(4-methylpyridin-3-yl)-1,3-thiazol-4-yl]benzoic acid]"
12,192 to 193,"NC(=O)c1ccc(-c2csc(-c3cnccc3C(F)(F)F)n2)cc1 [Compound 164, 4-{2-[4-(trifluoromethyl)pyridin-3-yl]-1,3-thiazol-4-yl}benzamide]"
13,222 to 225,"Cc1ccncc1-c1nc(-c2ccc(C(N)=O)cc2)cs1 [Compound 165, 4-[2-(4-methylpyridin-3-yl)-1,3-thiazol-4-yl]benzamide]"
14,106 to 108,"Cc1ccncc1-c1csc(-c2cccc(C(=O)N(C)C)c2)n1 [Example 27, N,N-dimethyl-3-[4-(4-methylpyridin-3-yl)-1,3-thiazol-2-yl]benzamide]"
15,155 to 157,"Cc1ccncc1-c1csc(-c2ccc(C(N)=O)cc2)n1 [Example 28, 4-[4-(4-methylpyridin-3-yl)-1,3-thiazol-2-yl]benzamide]"
16,115,"CNC(=O)c1ccc(-c2nc(-c3cnccc3C)cs2)cc1 [Example 29, N-methyl-4-[4-(4-methylpyridin-3-yl)-1,3-thiazol-2-yl]benzamide]"
17,140 to 143,"CNC(=O)c1ccc(C)c(-c2nc(-c3cnccc3C)cs2)c1 [Example 30, N, 4-dimethyl-3-[4-(4-methylpyridin-3-yl)-1,3-thiazol-2-yl]benzamide]"
18,180 to 182,"Cc1ccncc1-c1csc(-c2cc(C(=O)N(C)C)ccc2C)n1 [Example 31, N,N,4-trimethyl-3-[4-(4-methylpyridin-3-yl)-1,3-thiazol-2-yl]benzamide]"
19,195 to 196,"CNC(=O)c1ccc(F)c(-c2nc(-c3cnccc3C)cs2)c1 [Example 33, 4-fluoro-N-methyl-3-[4-(4-methylpyridin-3-yl)-1,3-thiazol-2-yl]benzamide]"
20,127 to 129,"CNC(=O)c1cc(-c2nc(-c3cnccc3C)cs2)ccc1Cl [Example 34, 2-chloro-N-methyl-5-[4-(4-methylpyridin-3-yl)-1,3-thiazol-2-yl]benzamide]"
21,205 to 207,"CC(=O)Nc1ccc(-c2nc(-c3cnccc3C)cs2)cc1 [Example 36, N-{4-[4-(4-methylpyridin-3-yl)-1,3-thiazol-2-yl]phenyl}acetamide]"
22,151 to 152,"CC(=O)Nc1ccc(C)c(-c2nc(-c3cnccc3C)cs2)c1 [Example 38, N-{4-methyl-3-[4-(4-methylpyridin-3-yl)-1,3-thiazol-2-yl]phenyl}acetamide]"
